{"source": "patent US6747029B2", "about": "“Dopamine D4 receptor antagonists as treatment for attention deficit-hyperactivity disorder” (priority 2001, dated 2004)", "key": {"6-OHDA-lesioned rats": {"test_system": "6-OHDA-lesioned rats", "experiment": "Locomotor activity of juvenile rats with neonatal 6-OHDA lesions (ADHD model)", "type": "in vivo, Sprague-Dawley rat", "conditions": "for motor activity in lesioned rats / effect on lesion-induced hyperactivity (dose dependence): daytime; for effect on lesion-induced hyperactivity (dose dependence): i.p., low and high dosage; for hyperactivity in lesioned rats with psychostimulants: daytime 10:00-16:00 h, dose not given", "text": "For example, behavioral studies of juvenile rats with neonatal 6-hydroxydopamine (6-OHDA) lesions, as is described below, can be used to screen drugs in order to identify candidate drugs for use in the method of the invention. […] As a result, juvenile rats with neonatal 6-OHDA lesions are accepted as a laboratory model for ADHD.\nOn postnatal day (PD) 5, male Sprague-Dawley rat pups randomly received intracisternal injections of vehicle (“sham-lesioned”) (0.9% NaCl containing 0.1% ascorbic acid) or 6-OHDA hydrobromide (“lesioned”) (100 μg free base) into the brain under hypothermal anesthesia at 45 min after pretreatment with desipramine hydrochloride (20 mg/kg free base) injected subcutaneously (s.c.).\nBehavioral effects of neonatal lesions were examined by monitoring locomotor activity at PD 21-30 in a novel environment to provoke exploratory activity. Rats were maintained under a 12-h artificial daylight/dark schedule (on, 07:00-19:00 h), with free access to tap-water and standard rat chow. Motor activity was automatically monitored for 90 min between PD 21 and 30, with a computer-controlled photobeam activity monitoring system (San Diego Instruments, San Diego, Calif.). […] […] Sessions were separated by 48 hours. […] Breaking of consecutive photobeams was scored as locomotion."}, "[1]": {"test_system": "non-dopaminergic receptors", "conditions": "except 5-HT1A and 5-HT2A; cited from earlier work"}, "D4 receptors [2]": {"target": "T1, D4 receptors (Homo sapiens, UniProt P21917)", "T1 sequence (P21917 1-419)": "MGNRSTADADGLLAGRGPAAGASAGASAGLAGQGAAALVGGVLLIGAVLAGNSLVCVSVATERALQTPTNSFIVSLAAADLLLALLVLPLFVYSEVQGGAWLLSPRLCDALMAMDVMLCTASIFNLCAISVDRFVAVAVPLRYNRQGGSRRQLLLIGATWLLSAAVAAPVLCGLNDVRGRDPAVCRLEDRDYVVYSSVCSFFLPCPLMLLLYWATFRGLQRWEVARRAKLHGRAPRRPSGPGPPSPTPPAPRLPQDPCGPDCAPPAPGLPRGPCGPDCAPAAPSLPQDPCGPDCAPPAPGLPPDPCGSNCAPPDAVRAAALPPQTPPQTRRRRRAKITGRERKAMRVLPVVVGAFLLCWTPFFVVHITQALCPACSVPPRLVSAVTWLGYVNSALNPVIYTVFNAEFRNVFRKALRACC", "conditions": "cited from earlier work"}, "sham-lesioned rats": {"test_system": "sham-lesioned rats", "experiment": "Locomotor activity of sham-lesioned control rats", "type": "in vivo, Sprague-Dawley rat", "conditions": "daytime 10:00-16:00 h", "procedure": "(§1) On postnatal day (PD) 5, male Sprague-Dawley rat pups randomly received intracisternal injections of vehicle (“sham-lesioned”) (0.9% NaCl containing 0.1% ascorbic acid) or 6-OHDA hydrobromide (“lesioned”) (100 μg free base) into the brain under hypothermal anesthesia at 45 min after pretreatment with desipramine hydrochloride (20 mg/kg free base) injected subcutaneously (s.c.). Lesions of DA in forebrain tissue sections were verified by quantifying DA transporter binding with [^3H]GBR-12935 (1-[2-(diphenylmethoxy)ethyl]-4-(3-phenylpropyl)piperazine) by computed autoradiography at the completion of experiments as an indication of loss of DA nerve terminals in forebrain.\nBehavioral effects of neonatal lesions were examined by monitoring locomotor activity at PD 21-30 in a novel environment to provoke exploratory activity. Rats were maintained under a 12-h artificial daylight/dark schedule (on, 07:00-19:00 h), with free access to tap-water and standard rat chow. Motor activity was automatically monitored for 90 min between PD 21 and 30, with a computer-controlled photobeam activity monitoring system (San Diego Instruments, San Diego, Calif.). […] Breaking of consecutive photobeams was scored as locomotion."}, "D2-like receptors": {"test_system": "D2-like receptors", "experiment": "Autoradiography of D2-like receptor binding in forebrain after neonatal lesion", "type": "in vivo, rat", "procedure": "as §1\n(§2) Rats were sacrificed 2 days after the last behavioral testing for autoradiographic analysis of DA receptor density. Frozen coronal brain sections (10 μm) were prepared in a cryostat at −17° C., thaw-mounted on gelatin-coated microscopic slides and stored at −80° C. until quantitative autoradiographic assays. D2-like receptor binding was assayed with 1 nM [^3H]nemonapride in the presence of 0.5 μM 1,3-ditolylguanidine and 0.1 μM pindolol to block 5-HT1A sites in the brain tissue. Nonspecific binding was determined with 10 μM […]. […] Nonspecific binding was determined with 1 μM cis-flupenthixol."}, "D4 receptors [3]": {"test_system": "D4 receptors", "experiment": "Autoradiography of D4 receptor binding in forebrain after neonatal lesion", "type": "in vivo, rat", "procedure": "as §1, §2"}}, "data": [{"compound": "Fc1ccc(OCC2CCC3CN(c4ncc(F)cn4)CCN3C2)cc1", "note": "(stereo not drawn) [CP-293,019, 7R,S-(4-fluoro-phenoxymethyl)-2-(5-fluoro-pyrimidin-2-yl)-octahydropyrido[1,2-α]pyrazine]", "values": [{"measurement": "motor activity in lesioned rats", "setting": "6-OHDA-lesioned rats; 30 mg/kg i.p., 90 min session", "result": "indistinguishable from sham-lesioned controls"}, {"measurement": "nocturnal hyperactivity in lesioned rats", "setting": "6-OHDA-lesioned rats; 30 mg/kg, nocturnal 22:00-04:00 h", "result": "completely reversed"}, {"measurement": "inhibition at 10 mg/kg", "setting": "6-OHDA-lesioned rats; Rattus norvegicus, ip, read-out: inhibition of motor activity in lesioned rats", "result": "~40", "unit": "%"}, {"measurement": "effect on lesion-induced hyperactivity (dose dependence)", "setting": "6-OHDA-lesioned rats", "result": "dose-dependent mitigation"}, {"measurement": "affinity for non-dopaminergic receptors", "setting": "[1]", "result": "negligible affinity"}, {"measurement": "potency at D4 receptors relative to D2 or other DA receptors", "setting": "D4 receptors [2]", "result": "more than 1000 times"}, {"measurement": "selectivity and kind of action at D4 receptors", "setting": "D4 receptors [2]", "result": "highly D4 receptor-selective, full antagonist"}]}, {"compound": "CC[C@@H](CO)NC(=O)[C@@H]1C=C2c3cccc4c3c(cn4C)C[C@H]2N(C)C1", "note": "[methysergide]", "values": [{"measurement": "effect of methysergide alone on lesion-induced hyperactivity", "setting": "6-OHDA-lesioned rats; 2 mg/kg i.p., 30 min prior to testing", "result": "failed to affect"}, {"measurement": "effect of methysergide pretreatment on motor responses to subsequent CP-293,019", "setting": "6-OHDA-lesioned rats; methysergide 2 mg/kg i.p. 30 min before CP-293,019 30 mg/kg", "result": "did not affect"}]}, {"compound": "Clc1ccc(N2CCN(Cc3c[nH]c4ncccc34)CC2)cc1", "note": "[L-745,870, 3-{[4-(4-chlorophenyl)piperazin-1-yl]methyl}-1H-pyrrolo[2,3-b]pyridine]", "values": [{"measurement": "motor activity in lesioned rats", "setting": "6-OHDA-lesioned rats; 15 mg/kg i.p.", "result": "reversed to a level similar to that found in control rats"}, {"measurement": "selectivity and kind of action at D4 receptors", "setting": "D4 receptors [2]", "result": "highly selective fill antagonist"}]}, {"compound": "CC(N)Cc1ccccc1", "note": "(single isomer, unassigned; (+)) [(+)-amphetamine]", "values": [{"measurement": "hyperactivity in lesioned rats with psychostimulants", "setting": "6-OHDA-lesioned rats", "result": "reduced"}, {"measurement": "motor activity in sham-lesioned controls", "setting": "sham-lesioned rats", "result": "greatly increased motor activity"}]}, {"compound": "COC(=O)C(c1ccccc1)C1CCCCN1", "note": "(racemic) [(±)-methylphenidate]", "values": [{"measurement": "hyperactivity in lesioned rats with psychostimulants", "setting": "6-OHDA-lesioned rats", "result": "reduced"}, {"measurement": "motor activity in sham-lesioned controls", "setting": "sham-lesioned rats", "result": "greatly increased motor activity"}]}, {"compound": "NCCc1cc(O)c(O)cc1O", "note": "[6-OHDA, 6-hydroxydopamine]", "values": [{"measurement": "increase of D2-like receptors versus sham", "setting": "D2-like receptors; lateral CPu", "result": 16.6, "unit": "%"}, {"measurement": "increase of D2-like receptors versus sham", "setting": "D2-like receptors; medial CPu", "result": 18.3, "unit": "%"}, {"measurement": "increase of D4 receptor binding versus sham", "setting": "D4 receptors [3]; lateral CPu", "result": 40.3, "unit": "%"}, {"measurement": "increase of D4 receptor binding versus sham", "setting": "D4 receptors [3]; medial CPu", "result": 35.2, "unit": "%"}]}, {"compound": "Fc1ccc2[nH]c(CN3CCN(c4ccccn4)CC3)cc2c1", "note": "[CP-226,269]", "values": [{"measurement": "effect on lesion-induced hyperactivity (dose dependence)", "setting": "6-OHDA-lesioned rats", "result": "dose-dependent exacerbation"}]}]}
